How the values were obtained:
[1] = tested on: MAPK signaling in Dnmt3a^−/− HSPCs; experiment: Immunoblot of MAPK signaling; type: cell-based, mouse
Experimental: (A) ALPK1 and TIFA mRNA expression in Dnmt3a^WT and Dnmt3a^KO HSC from the publicly available dataset GSE98191. (B) Immunoblot analysis of HSPCs from WT, Alpk1^KO, Dnmt3a^KO, and Dnmt3a^KO; Alpk1^KO mice stimulated with indicated concentrations of ADP-heptose for 30 minutes to examine MAPK signaling.
Protein concentration was evaluated by bicinchoninic acid (BCA) assay (Pierce, Cat #23225). SDS sample buffer was added to the lysates and the proteins were separated by SDS-polyacrylamide gel electrophoresis, transferred to PVDF or nitrocellulose membranes (BIO-RAD, Cat #1620112), and analyzed by immunoblotting. […] Membranes were visualized using ECL Western Blotting Substrate (Pierce, #32106) or SuperSignal West Femto Substrate (Thermo Scientific, #34096), imaged on a BIO-RAD ChemiDoc Touch Imaging system and analyzed with Image lab software 6.0.1 (Biorad) or Image J (22930834).

Dnmt3a^−/− mice = experiment: Cytokines measured in BM fluid after ADP-heptose in vivo; parameters: species or system mouse
Experimental: FIG. 9 depicts the effects of ADP-heptose on inflammatory cytokines and downstream signaling. (A) Heatmap of differentially expressed cytokines and chemokines as measured in the BM fluid of Dnmt3a^WT, Dnmt3a^KO, and Dnmt3a^KO; Alpk1^KO mice treated with ADP-heptose (0.5 mg/kg) in vivo. (B) Immunoblotting performed on THP1 cells untreated or treated with ADP-heptose (1 μg/ml) in combination with DMSO (−), UBE2N inhibitor at 5 μM (+), UBE2N inhibitor at 10 μM (++), IRAK1/4 inhibitor at 0.25 μM (+), and IRAK1/4 inhibitor at 0.5 μM (++) for 30 minutes. (C) Immunoblot analysis of NF-kB modulators on THP1 wildtype (WT), IRAK1KO, IRAK4KO, IRAK1/4d^KO, MyD88KO, and TRAF6^KO cells upon treatment with ADP-heptose (1 μg/ml) for 30 minutes.
Dysregulation of innate immune and inflammatory states is implicated in pre-leukemic conditions and overt leukemia by creating an inflammatory environment suppressive for normal hematopoiesis while promoting leukemic stem and progenitor cell expansion. Moreover, chronic inflammation associated with CHIP is implicated in cardiovascular disease. […] First, to determine whether ADP-heptose treatment creates an inflammatory milieu, Dnmt3a^−/− and WT mice were treated with ADP-heptose and cytokines were measured in the BM fluid.

TIFA-TdT THP1 cells = experiment: TIFAsome formation assay; type: cell-based, human
Experimental: THP1-TIFA-tdTomato cells (1*10^6) were stimulated with various human plasma samples (100 μl) for 30 mins in a 37° C. water bath in final volume of 200 μl. Cells were harvested, washed with PBS+2% FBS+2 mM EDTA (MACS buffer) and fixed with 4% Paraformaldehyde (PFA, Cat no. 15710, Electron Microscopy Sciences). After fixation, cells were washed again and then resuspended in 50 μl MACS buffer. Cells were then analyzed for TIFAsome formation on an Amnis Imagestream Mk II Imaging Flow Cytometer ISX-100 (Luminex) according to the manufacturer's instructions. Downstream analysis was performed in IDEAS analysis software (Amnis). TIFAsome positive cells were identified by gating on Mean Pixel Intensity and Max Pixel Intensity for bright puncta analysis using the IDEAS Image Data Exploration and Analysis Software. A standard curve was prepared by calculating % TIFAsome positive cells using samples which were stimulated with serial increasing doses of ADP-heptose covering the concentration range of 10 to 100,000 ng/ml. […]
THP1-TIFA-tdTomato-GFP cells were suspended at 1×10^6 cells/mL and treated with either human plasma samples (50 μl) in final volume of 200 μl for 30 minutes, or the inhibitor for 1 hour to allow for entry into the cell and then stimulated with ADP-heptose for 30 minutes. […] Images were acquired using a Nikon Ni-E Upright widefield fluorescent scope and analyzed using Nikon Elements.

## Nc1ncnc2c1ncn2[C@@H]1O[C@H](COP(=O)(O)OP(=O)(O)O[C@@H]2O[C@H]([C@H](O)CO)[C@@H](O)[C@H](O)[C@@H]2O)[C@@H](O)[C@H]1O [ADP-heptose, ADP-D-glycero-β-D-manno-heptose]
[1]
  MAPK signaling: did not result in MAPK signaling
Dnmt3a^−/− mice
  cytokines in BM fluid (IL-1β, G-CSF, TNFα): elevated expression of numerous cytokines
TIFA-TdT THP1 cells
  TIFAsome formation (discrete puncta in the cytoplasm): rapidly induce TIFAsome formation
